Target: PKM2 (Homo sapiens, UniProt P14618)
Assay: Cell-Based Pyruvate Kinase Activity Assay, A549
Design: host or cells: A549 or NCI-H1299 lung cancer cells
Conditions: A549, 30 minutes with compound, n = 4; read-out: Cellular PKM2 activation EC50
Description: Cell-Based Pyruvate Kinase Activity Assay
A549 or NCI-H1299 lung cancer cells were plated at 20,000 cells per well (96-well plate) in MEM media plus 10% FBS, with no additional glutamine or pyruvate. Following overnight incubation, cells were washed with PBS followed by 4 hour incubation in MEM media. Compounds were added to the cells in 1% final concentration DMSO. After 30 minutes, cells were lysed, and pyruvate kinase activity in lysates was determined by Pyruvate Kinase Activity Assay (BioVision, Milpitas, Calif.). Maximum velocity values were calculated from the kinetic data, and AC50 values were determined using Prism GraphPad Software (La Jolla, Calif.). Compound washout experiments were as described above, except after a 30 minute incubation with Example 244 (469 nM), the cells were washed with PBS followed by the addition of MEM media for the indicated time period, lysed and pyruvate kinase activity determined. Results are tabulated in Table 3 and presented graphically in FIGS. 6A and 6B.

Sequence of PKM2 (P14618 2-531 limits assumed): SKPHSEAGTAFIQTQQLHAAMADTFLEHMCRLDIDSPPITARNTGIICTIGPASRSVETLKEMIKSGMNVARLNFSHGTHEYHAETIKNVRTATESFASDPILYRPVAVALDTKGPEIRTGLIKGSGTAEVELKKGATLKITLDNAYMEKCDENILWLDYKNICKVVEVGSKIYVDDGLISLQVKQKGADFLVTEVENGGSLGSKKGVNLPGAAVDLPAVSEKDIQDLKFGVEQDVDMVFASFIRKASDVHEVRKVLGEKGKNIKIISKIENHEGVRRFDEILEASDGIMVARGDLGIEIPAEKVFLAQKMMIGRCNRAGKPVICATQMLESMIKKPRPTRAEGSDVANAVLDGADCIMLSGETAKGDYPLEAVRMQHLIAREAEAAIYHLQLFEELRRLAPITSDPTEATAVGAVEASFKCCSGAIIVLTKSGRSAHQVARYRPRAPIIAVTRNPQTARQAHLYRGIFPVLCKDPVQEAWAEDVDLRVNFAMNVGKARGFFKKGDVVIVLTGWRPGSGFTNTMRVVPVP

O=C(c1cc(C(F)(F)F)n[nH]1)N(Cc1ccc(O)cc1F)CC1CCC1 [Example 1, N-(cyclobutylmethyl)-N-(2-fluoro-4-hydroxybenzyl)-3-(trifluoromethyl)-1H-pyrazole-5-carboxamide]
EC50: 260 ± 120 nM

— patent US10766865B2, “PKM2 modulators and methods for their use” (TOLERO PHARMACEUTICALS, INC., priority 2012, dated 2020)
